Reference: patent US20060234276A1, “Methods of treatment of type 2 diabetes” (priority 1998, published 2006)
Peptide text beside a SMILES is read from it.

How the values were obtained:
Format in all cases: cell-based
[1] = system: perifused mouse islets; experiment: Insulin secretion from perifused islets; details: 4 hr preincubation; 100 μM ALLM, 200 μM E-64-d
Description: Insulin secretion from perifused islets. Insulin secretion from perifused islets was measured using a modification of a previously described protocol (Pontoglio et al., 1998; Sreenan et al., 1998).

[2] = system: mouse islets; experiment: Measurement of islet [Ca2+]i (Fura-2)
Description: (§1) Measurement of islet [Ca^2+]i, and NAD(P)H. Islet [Ca^2+]i and NAD(P)H were measured as previously described (Pontoglio et al., 1998; Dukes et al., 1998).
Insulin secretory responses to glucose and most other secretagogues is mediated by a rise in intracellular free calcium ([Ca^2+]i). We therefore measured [Ca^2+]i responses to glucose, KIC and KCl using Fura-2 as the Ca^2+ indicator. In comparison to the responses from the control islets, the most prominent abnormality in [Ca^2+]i responses to glucose and KIC was a delay of the [Ca^2+]i responses (FIG. 21). The mean time interval between administration of 14 mM glucose and the point of half maximal response (T1/2.) was 120±14 seconds in control islets. […] There was no delay in the appearance of [Ca^2+]i response to KCl, nor was the magnitude of the response reduced.

[3] = system: mouse islets; experiment: Glucose utilization and oxidation rates in islets
Description: Glucose utilization and oxidation rates. Glucose utilization and oxidation rates were measured as previously described (Dukes et al., 1998; Zhou et al., 1996) in mouse islets cultured as described above in the presence or absence of calpain inhibitors.

[4] = system: mouse islets; experiment: Islet NAD(P)H autofluorescence response
Description: as §1

[5] = system: calpain; experiment: Calpain activity in mouse pancreatic islets (Boc-Leu-Met-CMAC cleavage)
[6] = system: rat soleus muscle strips; experiment: 2-Deoxyglucose uptake into soleus muscle strips; details: 100 μM ALLM or 200 μM E-64-d
Description: 2-Deoxyglucose uptake into skeletal muscle and adipose tissue. 2-deoxyglucose (2-DOG) uptake by isolated strips of soleus muscle from normal Wistar rats was measured using a modification of a previously described protocol (Burant et al., 1984). […] Muscles were then extracted and 2-DOG uptake calculated as previously described (Burant et al., 1984).

`CSCC[C@@H](C=O)NC(=O)[C@H](CC(C)C)NC(=O)[C@H](CC(C)C)NC(C)=O` [ALLM, N-Ac-Leu-Leu-methioninal] (Ac-Leu-Leu-Met-aldehyde) was tested, and the “enhancement of insulin secretory response to 20 mM glucose in dynamic islet perifusion” value [1] was “also observed”, the “[Ca2+]i response to high glucose” value ([2]; 4 hr preincubation, 14 mM glucose) was “not associated with increases in [Ca^2+]i” and the “[Ca2+]i response to glucose ramp (2 to 26 mM over 48 mins)” value ([2]; 48 h treated islets) was “diminished”. For the same compound, the “[Ca2+]i responses to 30 mM KCl vs control” value ([2]; 48 h treated islets) was “not different”, the “integrated [Ca2+]i responses (area under the curves) to glucose and KIC vs control” value ([2]; 48 h treated islets) was “significantly smaller” and the “T1/2 of [Ca2+]i response to 14 mM glucose (time to half maximal response)” value ([2]; 48 h treated islets, control 120±14 seconds) was 5.32 ± 0.7 min. For the same compound, the “T1/2 of [Ca2+]i response to KIC” value ([2]; 48 h treated islets, control 125±9) was 4.18 ± 0.7 min, the “rate of glucose utilization at basal glucose” value ([3]; 2 mM glucose, 100 μM ALLM or 200 μM E-64-d, 4 h) was 14.5±3.6 pmol/islet/hr and the “rate of glucose utilization at stimulatory glucose” value ([3]; 20 mM glucose, 100 μM ALLM or 200 μM E-64-d, 4 h) was 89.5±3.0 pmol/islet/hr. For the same compound, the “rate of basal glucose utilization and oxidation at 3.3 mM glucose” value ([3]; 48 h treated islets) was “no significant changes”, the “rates of glycolysis and glucose oxidation at stimulating concentrations of glucose” value ([3]; 48 h treated islets vs controls) was “significantly reduced” and the “glucose oxidation rate at basal glucose” value ([3]; basal glucose, ALLM or E-64-d, 4 h) was 6.0±0.7 pmol/islet/hr. For the same compound, the “glucose oxidation rate at stimulatory glucose” value ([3]; stimulatory glucose, ALLM or E-64-d, 4 h) was 39.5±4.1 pmol/islet/hr, the “NAD(P)H response to increase in glucose from 2 to 14 mM” value ([4]; 100 μM ALLM or E-64-d, 4 hr preincubation) was 2.7±0.4 fold increase and the “NAD(P)H responses to KIC vs control” value ([4]; 48 h treated islets) was “significantly reduced”. The “NAD(P)H responses to glucose vs control” value ([4]; 48 h treated islets) was “comparable”, the “area under the curve of rate of generation of fluorescent calpain product” value ([5]; 200 μM inhibitor, 4 hr incubation) was 35±4 % of control values and the “residual calpain activity in intact islets” value ([5]; 48 h treatment, 100 μM ALLM or 200 μM E-64-d) was 54±3 % of control treated islets. For the same compound, the “2-deoxyglucose uptake into soleus muscle strips with insulin” value ([6]; insulin 12 nM) was 0.34±0.05 (mol/ml H20/30 mins and the “2-deoxyglucose uptake into soleus muscle strips without insulin” value ([6]; no insulin) was 0.28±0.04 (mol/ml H20/30 mins.
